Source: patent publication US8546397B2, “DNA methylation inhibitors” (The Ohio State University Research Foundation, priority 2010, dated 2013)
“Also recorded” adds a separate entry of the source. Where two headings read alike, the source gives them in different places.

Key:
Trip10 promoter = assay: Methylation-specific PCR (MSP) of Trip10; assay type: cell-based; settings: MCF7 cells, 7.5 or 30 μM, 5 days of treatment
Description: (§1) Cell culture and drug treatment. […] 5-Aza and procainamide were purchased from Sigma-Aldrich. […] Control cells received DMSO vehicle.
Bisulfite conversion. Genomic DNA (0.5 μg) was bisulfite-converted by the EZ DNA Methylation Kit (Zymo) by following the manufacturer's instructions.
qMSP. Bisulfite converted DNAs were PCR-amplified by using appropriate PCR primers. Universal methylated DNAs (Millipore) were used as positive control. Col2A1 was used as a loading control and to amplify the serial diluted (1/10, 1/100 and 1/1000) bisulfite-converted universal methylated DNAs to generate the standard curve for quantization in real time PCR machine (Bio-Rad, iQ5). The methylation percentage was calculated as [(Intensity of Amplifications by Trip10 MSP primer set)×100]/(Intensity of Amplifications by Col2A1 MSP primer set) (%). The qMSP was performed in a 25 μL, of reaction mixture containing 4 μL of template (bisulfate treated DNA), 2 μL of primer pair (2.5 μM), 12.5 μL of 2× reaction buffer (SYBR Green real time PCR Master Mix, Toyobo), and 6.5 μL of H2O.

GSTp1 = assay: Methylation-specific PCR (MSP) of GSTp1; assay type: cell-based; settings: MCF7 cells, 7.5 or 30 μM, 5 days of treatment
[1] = test system: Trip10 promoter methylation (EGFP expression) in MCF7 cells; settings: for EGFP expression levels relative to DMSO control: transfected MCF7 cells, different concentrations, 5-day treatment, fluorescence microscopy; for inhibition of EGFP expression (DNA demethylation) in library screening: each compound at 7.5 μM, MCF7 reporter cells
cancer cell growth = settings: Lee et al., J. Biol. Chem. 280 (2005); cited from earlier work
MCF7 cells [2] = assay: MTT cell viability assay; settings: 5-day treatment, dose range
Description: (§2) MCF7 breast cancer cells, obtained from American Type Culture Collection, were grown in Minimal Essential Medium (MEM; Invitrogen), supplemented with 10% FBS, 2 mM L-glutamine, and 100 μg/ml penicillin/streptomycin. Cells were cultured at 37° C. in a humidified incubator containing 5% CO2. Medium changes were performed twice weekly and cell passages were performed at 90% confluence. To maintain the two-component constructs in MCF7 cells, 200 μg/mL of hygromycin B (Invitrogen) and 500 μg/mL of Geneticin (G418, Calbiochem) were included in culture medium. 5-Aza and procainamide were purchased from Sigma-Aldrich. Compounds being tested were dissolved in DMSO as stock solutions, and added to culture medium with final DMSO concentrations of 0.3% and 1.2% (v/v) for 7.5 μM and 30 μM of testing drugs, respectively. Control cells received DMSO vehicle. During the 5-day treatment period, medium was changed on the third day of treatment along with the addition of 17β-estradiol (E2, 10 ng/ml).
(§3) Cell viability was assessed using MTT [3-(4,5-dimethylthiazol-2-yl)-2,5-diphenyl-2H-tetrazolium bromide, Sigma-Aldrich) in six replicates. MCF7 cells were seeded at 4,000 cells per well in 96-well plates, and treated with test agents at different concentrations. […] Reduced MTT was solubilized in 200 μl/well of DMSO for determination of absorbance of 595 nm using a microplate reader.

MCF7 cells [3] = test system: MCF7 cells
Description: as §2, §3

[4] = test system: EGFP expression in MCF7 cells; assay: GFP ELISA of EGFP expression in the two-component reporter system; assay type: cell-based
Description: as §1
ELISA. Enzyme-linked immunosorbent assay (ELISA) was performed using the GFP ELISA kit (Cell Biolabs, San Diego, Calif.) according to the manufacture's instruction.

[5] = test system: EGFP expression in MCF7 cells; assay: Western blot analysis of EGFP expression; assay type: cell-based; settings: 7.5 μM, 5 days
Description: as §1
Western blotting. Equal amounts of protein in cell lysates were separated in 10% SDS polyacrylamide gels and then transblotted to nitrocellulose membranes. After blocking with non-fat milk, the membrane was washed and incubated with antibodies against GFP (Abeam) or (β-actin (Sigma-Aldrich). The membrane was washed, and then incubated with anti-rabbit immunoglobulin G-horseradish peroxidase. After final wash, the proteins were visualized by enhanced chemiluminescence. Immunoblotting data were analyzed by NIH Image.
In another set of experiment, cells were treated with 7.5 μM of candidate drugs for 5 days, then the cell lysates were harvested and subjected to Western blot. […] The inconsistence between the Western blot result versus the ELISA/images is not immediately clear. Results obtained from ELISA and Western blot confirmed that IM25 is an effective demethylation agent in inhibiting EGFP expression.

[6] = test system: genome-wide methylation in MCF7 cells; assay: Differential Methylation Hybridization (DMH) array, genome-wide methylation; assay type: cell-based
Description: Differential Methylation Hybridization (DMH) Array. DMH was performed according to a reported procedure. Yan et al., J Nutr, 132(8 Suppl): p. 2430S-2434S (2002). Amplicons prepared from control (vehicle-treated) MCF7 cells were labeled with Cy5 and the amplicons prepared from drug-treated cells were labeled with Cy3. Labeled DNAs were co-hybridized onto 244K Agilent promoter array. Array hybridization results were normalized with LOWESS and a cutoff of 4 folds was used.
Statistics. ELISA and MTT results were analyzed by F-test. Significant demethylated loci were confirmed by ANOVA from DMH results. Linear regression was used to deduce the global methylation states before and after the demethylation agent treatment.

CCN(CC)CCNC(=O)c1ccc(N)cc1 [procainamide]
methylation level of Trip10 (Trip10 promoter): weaker effect in demethylating Trip10 promoter | methylation level of GSTp1 (GSTp1): significantly reduced the methylation level of GSTp1 | morphological changes, light microscopy (Vis) [1]: did not cause morphological changes | EGFP expression levels relative to DMSO control [1]: dose-dependent, repressive effects on EGFP expression levels | concentration required to be effective in DNA demethylation in suppressing cancer cell growth (cancer cell growth): ≥ 50 µM | suppression of MCF7 cell viability (MCF7 cells [2]): did not cause morphological changes [light microscopy (Vis)] or suppression of cell viability

COc1ccc(O)c(C(C)=O)c1 [CI-4-1]
methylation level of Trip10 (Trip10 promoter): decreases the methylation level of both genes, but to a lesser extent; also recorded: weaker effect in demethylating Trip10 promoter | methylation level of GSTp1 (GSTp1): decreases the methylation level of both genes, but to a lesser extent; also recorded: significantly reduced the methylation level of GSTp1 | inhibition of EGFP expression (DNA demethylation) in library screening [1]: high activity

Nc1ncn([C@H]2C[C@H](O)[C@@H](CO)O2)c(=O)n1 [Compound 5-Aza, 5-aza-2′-deoxycytidine]
methylation level of Trip10 (Trip10 promoter): weaker effect in demethylating Trip10 promoter | methylation level of GSTp1 (GSTp1): significantly reduced the methylation level of GSTp1 | morphological changes, light microscopy (Vis) [1]: did not cause morphological changes | EGFP expression levels relative to DMSO control [1]: dose-dependent, repressive effects on EGFP expression levels | suppression of MCF7 cell viability (MCF7 cells [3]): did not cause morphological changes [light microscopy (Vis)] or suppression of cell viability

COc1ccc(S(=O)(=O)N2CCNCC2)cc1OC [IM25]
demethylation potency in terms of inhibiting the EGFP expression [4]: greater demethylation potency than 5-Aza | protein level of EGFP [5]: substantially suppressed | methylation level of Trip10 (Trip10 promoter): greatest potency in facilitating the demethylation of both Trip10 and GSTp1; also recorded: weaker effect in demethylating Trip10 promoter | methylation level of GSTp1 (GSTp1): greatest potency in facilitating the demethylation of both Trip10 and GSTp1; also recorded: significantly reduced the methylation level of GSTp1 | global (genome-wide) demethylation ([6]; MCF7 cells, 7.5 μM): able to cause global demethylation in MCF7 cells | more demethylated loci than after 5-Aza treatment ([6]; out of 244K target loci in Agilent array, significant by ANOVA): 5,506 loci | inhibition of EGFP expression (DNA demethylation) in library screening [1]: high activity

O=S(=O)(c1ccc(Br)cc1)N1CCNCC1 [IM9]
protein level of EGFP [5]: significantly inhibited
